The target of assay [1] is T1, human delta opioid receptors (Homo sapiens, UniProt P41143).
T1 construct: expressed in transfected cells; membranes
Description: radioligand binding assay, cloned human delta opioid receptor, [3H]-DADLE. The procedure: (§1) The activity of the compounds of the present invention as selective delta ligands is determined in radioligand binding assays using cloned human delta, mu and kappa opioid receptors stably expressed in cell lines as described below.
(§2) CHO cells were subjected to stable transfection with cDNA encoding the human delta and mu opioid receptors. Clones were grown in suspension culture in serum free media. Selection was performed by growth in the absence of nucleotides.
(§3) Membranes were prepared as previously described (J. Med. Chem. 1997, 40 3192). The binding of the preferential delta ligand [^3H]-[D-Ala^2,D-Leu^5]-enkephalin (DADLE) was evaluated at its KD concentration (0.7 nM). The binding of the mu ligand [^3H]-DAMGO (Eur. J. Pharmacol., 1989, 166, 213) and of the kappa ligand [^3H]-U69593 (Excerpta Medica, 1990, 211) were carried out at 0.5 nM. Non specific binding was determined in the presence of 10 uM of naloxone. Binding data were expressed as percentage of inhibition and fitted the following equation: f(x)=100·X/(IC50+X) where X is the cold drug concentration value. The IC50 values obtained were used to calculate the inhibitory constants (Ki) according to the Cheng and Prusoff relation (Biochem. Pharmacol., 1973, 22, 3099).

Assay [2] concerns the target T2, human mu opioid receptors (Homo sapiens, UniProt P35372).
T2 construct: expressed in transfected cells; membranes
Description: radioligand binding assay, cloned human mu opioid receptor, [3H]-DAMGO. The note with it: ratio of Ki at human mu ([3H]-DAMGO 0.5 nM) to Ki at human delta. As to the method: as §1, §2, §3

Structures are written as SMILES.

T1 sequence (P41143 whole entry): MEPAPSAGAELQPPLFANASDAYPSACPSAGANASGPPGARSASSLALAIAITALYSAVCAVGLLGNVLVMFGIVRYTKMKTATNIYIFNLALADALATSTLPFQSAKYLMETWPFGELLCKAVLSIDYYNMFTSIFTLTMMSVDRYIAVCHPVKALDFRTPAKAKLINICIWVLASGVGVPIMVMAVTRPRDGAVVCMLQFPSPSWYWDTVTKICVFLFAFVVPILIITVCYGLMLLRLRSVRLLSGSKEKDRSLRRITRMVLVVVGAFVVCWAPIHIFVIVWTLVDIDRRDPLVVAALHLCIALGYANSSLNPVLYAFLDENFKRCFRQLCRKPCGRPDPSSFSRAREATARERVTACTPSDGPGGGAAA
T2 sequence (P35372 whole entry): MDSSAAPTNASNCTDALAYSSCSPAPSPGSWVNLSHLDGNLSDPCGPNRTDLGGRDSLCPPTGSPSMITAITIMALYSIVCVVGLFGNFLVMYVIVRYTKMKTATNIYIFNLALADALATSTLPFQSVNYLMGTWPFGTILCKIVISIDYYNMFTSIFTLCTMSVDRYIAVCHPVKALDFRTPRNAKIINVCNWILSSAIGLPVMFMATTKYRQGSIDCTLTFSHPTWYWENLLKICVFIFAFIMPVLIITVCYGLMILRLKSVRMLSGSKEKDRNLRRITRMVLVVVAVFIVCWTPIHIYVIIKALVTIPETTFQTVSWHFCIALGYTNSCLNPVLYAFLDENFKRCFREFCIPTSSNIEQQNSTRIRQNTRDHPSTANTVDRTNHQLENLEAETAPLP

By Ki is commonly meant a dissociation constant, usually derived from enzyme kinetics or from competition with a known ligand. In assay [1], `COc1ccc2c3c1O[C@H]1c4[nH]c(C(=O)N5CCN(c6ccc(C)cc6C)CC5)c(C)c4C[C@H]4[C@@H](C2)N(C)CC[C@]314` [Example 6] registered an inhibition constant Ki of 1 nM. Also, the “Ki mu/Ki delta” value in assay [2] is given as 437.

In assay [1], `COc1ccc(N2CCN(C(=O)c3[nH]c4c(c3C)C[C@H]3[C@H]5Cc6ccc(OC)c7c6[C@@]3(CCN5C)[C@H]4O7)CC2)c(OC)c1` [Example 23] showed a Ki of 0.6 nM. Moreover, in assay [2], the “Ki mu/Ki delta” value came out at 1010.
